Among the data in the supplement of paper PMC10307832 are relative viability values, retold here.

What all share (assay): relative viability (nuclei count vs DMSO), 5 days (fraction); higher = more cells survive
Compound in experiment [1]: C1CNCCC1C2=CC(=NN2)C3=CC=NC=C3 + COc1cccc2cc(-c3nc([C@H]4CC[C@H](C(=O)O)CC4)n4ncnc(N)c34)[nH]c12 [OSI-027] (partner 0.5 µM)
Summed up: (§1)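 Each reported value is a median over duplicate plates. It expresses relative viability: treated-well nuclei count divided by vehicle-well nuclei count. Lung cancer cell lines in 1536-well plates were dosed by pin tool a day after seeding, alone with one drug or with a fixed anchor-drug dose plus five library-drug doses (not always all listed) in √10 steps, and nuclei were counted after 5 days.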

Compound in experiment [2]: C1CNCCC1C2=CC(=NN2)C3=CC=NC=C3 + O=C(CCCCCCC(=O)Nc1ccccc1)NO [Vorinostat] (partner 1 µM)
Summed up:
as §1

Compound in experiment [3]: C[C@@H](N)c1ccc(C(=O)Nc2ccnc3[nH]ccc23)cc1 + CS(=O)(=O)N1CCN(Cc2cc3nc(-c4cccc5[nH]ncc45)nc(N4CCOCC4)c3s2)CC1 [Pictilisib] (partner 1 µM)
Summed up: as §1

Compound in experiment [4]: C1CNCCC1C2=CC(=NN2)C3=CC=NC=C3 + Nc1nc2[nH]cc(CCc3ccc(C(=O)N[C@@H](CCC(=O)O)C(=O)O)cc3)c2c(=O)[nH]1 [Pemetrexed] (partner 0.2 µM)
Summed up:
as §1

For NCI-H727, the relative viability stood at 0.613 in experiment [1] (first compound 0.08 µM); 0.579 in experiment [1] (first compound 0.8 µM); 0.816 in experiment [1] (first compound 2.53 µM); 0.815 in experiment [1] (first compound 8 µM); 1.25 in experiment [2] (first compound 0.08 µM); 1.08 in experiment [2] (first compound 0.8 µM). In addition, the relative viability turned out to be 1.29 in experiment [2] (first compound 2.53 µM); 1.18 in experiment [2] (first compound 8 µM); 0.63 in experiment [3] (first compound 0.04 µM); 0.466 in experiment [3] (first compound 0.1265 µM); 0.785 in experiment [3] (first compound 0.4 µM); 0.223 in experiment [3] (first compound 1.265 µM). In addition, in experiment [3] (first compound 4 µM), the relative viability turned out to be 0.683.
As to NCI-H1299, the relative viability in experiment [3] (first compound 0.04 µM) was found to be 0.874; in experiment [3] (first compound 0.1265 µM), 0.921; in experiment [3] (first compound 0.4 µM), 0.973; in experiment [3] (first compound 1.265 µM), 0.892; in experiment [3] (first compound 4 µM), 0.678.
Regarding NCI-H1563, the relative viability was 0.74 in experiment [1] (first compound 0.08 µM); 0.771 in experiment [1] (first compound 0.8 µM); 0.749 in experiment [1] (first compound 2.53 µM); 0.769 in experiment [1] (first compound 8 µM); 0.818 in experiment [4] (first compound 0.08 µM); 0.662 in experiment [4] (first compound 0.8 µM). For the same cell line, the relative viability is 0.961 in experiment [4] (first compound 2.53 µM); 0.904 in experiment [4] (first compound 8 µM); 0.691 in experiment [3] (first compound 0.04 µM); 0.661 in experiment [3] (first compound 0.1265 µM); 0.638 in experiment [3] (first compound 0.4 µM); 0.578 in experiment [3] (first compound 1.265 µM). For the same cell line, the relative viability in experiment [3] (first compound 4 µM) was determined as 0.688.
Take NCI-H1623: the relative viability in experiment [1] (first compound 0.08 µM) was determined as 0.451; in experiment [1] (first compound 0.8 µM) it was 0.504; in experiment [1] (first compound 2.53 µM), 0.488; in experiment [1] (first compound 8 µM), 0.42.
Turning to NCI-H1648, the relative viability in experiment [1] (first compound 0.08 µM) came to 0.242; in experiment [1] (first compound 0.8 µM) it was 0.271; in experiment [1] (first compound 2.53 µM), 0.292; in experiment [1] (first compound 8 µM), 0.245; in experiment [4] (first compound 0.08 µM), 0.671; in experiment [4] (first compound 0.8 µM), 0.57. The relative viability in experiment [4] (first compound 8 µM) was determined as 0.828; in experiment [2] (first compound 0.08 µM), 0.381; in experiment [2] (first compound 0.8 µM), 0.518; in experiment [2] (first compound 8 µM), 0.488.
With NCI-H1703, the relative viability turned out to be 0.235 in experiment [3] (first compound 0.04 µM); 0.247 in experiment [3] (first compound 0.1265 µM); 0.205 in experiment [3] (first compound 0.4 µM); 0.234 in experiment [3] (first compound 1.265 µM); 0.197 in experiment [3] (first compound 4 µM).
For the cell line NCI-H1792, the relative viability in experiment [1] (first compound 0.08 µM) came to 0.74; in experiment [1] (first compound 0.8 µM), 0.766; in experiment [1] (first compound 2.53 µM), 0.706; in experiment [1] (first compound 8 µM), 0.749; in experiment [4] (first compound 0.08 µM), 0.909; in experiment [4] (first compound 0.8 µM), 0.73. Moreover, the relative viability in experiment [4] (first compound 2.53 µM) was 0.831; in experiment [4] (first compound 8 µM), 0.849; in experiment [3] (first compound 0.04 µM), 0.368; in experiment [3] (first compound 0.1265 µM) it was 0.273; in experiment [3] (first compound 0.4 µM), 0.38; in experiment [3] (first compound 1.265 µM), 0.349. Moreover, the relative viability in experiment [3] (first compound 4 µM) was 0.288.
Regarding NCI-H2342, the relative viability in experiment [1] (first compound 0.08 µM) was determined as 0.627; in experiment [1] (first compound 0.8 µM), 0.577; in experiment [1] (first compound 2.53 µM), 0.634; in experiment [1] (first compound 8 µM), 0.674; in experiment [4] (first compound 0.08 µM), 0.725; in experiment [4] (first compound 0.8 µM), 0.711. For the same cell line, the relative viability in experiment [4] (first compound 2.53 µM) came out at 0.759; in experiment [4] (first compound 8 µM) it was 0.787; in experiment [2] (first compound 0.08 µM), 0.706; in experiment [2] (first compound 0.8 µM), 0.71; in experiment [2] (first compound 2.53 µM) it was 0.774; in experiment [2] (first compound 8 µM) it was 0.809.
Take SW 900: the relative viability in experiment [1] (first compound 0.08 µM) worked out at 0.51; in experiment [1] (first compound 0.8 µM) it was 0.569; in experiment [1] (first compound 2.53 µM), 0.713; in experiment [1] (first compound 8 µM) it was 0.464; in experiment [4] (first compound 0.08 µM), 0.497; in experiment [4] (first compound 2.53 µM), 0.5. The relative viability amounted to 0.454 in experiment [4] (first compound 8 µM), 0.521 in experiment [2] (first compound 0.08 µM), 0.684 in experiment [2] (first compound 2.53 µM) and 0.563 in experiment [2] (first compound 8 µM).
